US12559506B2, “Indazole based compounds and associated methods of use” (Arvinas Operations, Inc., priority 2021, dated 2026)
Where two headings read alike, the source gives them in different places.

Columns and labels:
G2019S LRRK2 = molecular target: T1, G2019S LRRK2 (Homo sapiens, UniProt Q5S007, G2019S); experiment: LRRK2 degradation assay, HiBit-tagged G2019S LRRK2 expressed from plasmid in HEK293 cells (Nano-Glo Dual-Luciferase); type: cell-based; details: 24 hours
T1 construct: expressed in transfected cells; host or cells: HEK293 (ATCC CRL-1573), transient transfection, mammalian expression vector with ubiquitin promoter
T1 sequence (Q5S007 whole entry G2019S): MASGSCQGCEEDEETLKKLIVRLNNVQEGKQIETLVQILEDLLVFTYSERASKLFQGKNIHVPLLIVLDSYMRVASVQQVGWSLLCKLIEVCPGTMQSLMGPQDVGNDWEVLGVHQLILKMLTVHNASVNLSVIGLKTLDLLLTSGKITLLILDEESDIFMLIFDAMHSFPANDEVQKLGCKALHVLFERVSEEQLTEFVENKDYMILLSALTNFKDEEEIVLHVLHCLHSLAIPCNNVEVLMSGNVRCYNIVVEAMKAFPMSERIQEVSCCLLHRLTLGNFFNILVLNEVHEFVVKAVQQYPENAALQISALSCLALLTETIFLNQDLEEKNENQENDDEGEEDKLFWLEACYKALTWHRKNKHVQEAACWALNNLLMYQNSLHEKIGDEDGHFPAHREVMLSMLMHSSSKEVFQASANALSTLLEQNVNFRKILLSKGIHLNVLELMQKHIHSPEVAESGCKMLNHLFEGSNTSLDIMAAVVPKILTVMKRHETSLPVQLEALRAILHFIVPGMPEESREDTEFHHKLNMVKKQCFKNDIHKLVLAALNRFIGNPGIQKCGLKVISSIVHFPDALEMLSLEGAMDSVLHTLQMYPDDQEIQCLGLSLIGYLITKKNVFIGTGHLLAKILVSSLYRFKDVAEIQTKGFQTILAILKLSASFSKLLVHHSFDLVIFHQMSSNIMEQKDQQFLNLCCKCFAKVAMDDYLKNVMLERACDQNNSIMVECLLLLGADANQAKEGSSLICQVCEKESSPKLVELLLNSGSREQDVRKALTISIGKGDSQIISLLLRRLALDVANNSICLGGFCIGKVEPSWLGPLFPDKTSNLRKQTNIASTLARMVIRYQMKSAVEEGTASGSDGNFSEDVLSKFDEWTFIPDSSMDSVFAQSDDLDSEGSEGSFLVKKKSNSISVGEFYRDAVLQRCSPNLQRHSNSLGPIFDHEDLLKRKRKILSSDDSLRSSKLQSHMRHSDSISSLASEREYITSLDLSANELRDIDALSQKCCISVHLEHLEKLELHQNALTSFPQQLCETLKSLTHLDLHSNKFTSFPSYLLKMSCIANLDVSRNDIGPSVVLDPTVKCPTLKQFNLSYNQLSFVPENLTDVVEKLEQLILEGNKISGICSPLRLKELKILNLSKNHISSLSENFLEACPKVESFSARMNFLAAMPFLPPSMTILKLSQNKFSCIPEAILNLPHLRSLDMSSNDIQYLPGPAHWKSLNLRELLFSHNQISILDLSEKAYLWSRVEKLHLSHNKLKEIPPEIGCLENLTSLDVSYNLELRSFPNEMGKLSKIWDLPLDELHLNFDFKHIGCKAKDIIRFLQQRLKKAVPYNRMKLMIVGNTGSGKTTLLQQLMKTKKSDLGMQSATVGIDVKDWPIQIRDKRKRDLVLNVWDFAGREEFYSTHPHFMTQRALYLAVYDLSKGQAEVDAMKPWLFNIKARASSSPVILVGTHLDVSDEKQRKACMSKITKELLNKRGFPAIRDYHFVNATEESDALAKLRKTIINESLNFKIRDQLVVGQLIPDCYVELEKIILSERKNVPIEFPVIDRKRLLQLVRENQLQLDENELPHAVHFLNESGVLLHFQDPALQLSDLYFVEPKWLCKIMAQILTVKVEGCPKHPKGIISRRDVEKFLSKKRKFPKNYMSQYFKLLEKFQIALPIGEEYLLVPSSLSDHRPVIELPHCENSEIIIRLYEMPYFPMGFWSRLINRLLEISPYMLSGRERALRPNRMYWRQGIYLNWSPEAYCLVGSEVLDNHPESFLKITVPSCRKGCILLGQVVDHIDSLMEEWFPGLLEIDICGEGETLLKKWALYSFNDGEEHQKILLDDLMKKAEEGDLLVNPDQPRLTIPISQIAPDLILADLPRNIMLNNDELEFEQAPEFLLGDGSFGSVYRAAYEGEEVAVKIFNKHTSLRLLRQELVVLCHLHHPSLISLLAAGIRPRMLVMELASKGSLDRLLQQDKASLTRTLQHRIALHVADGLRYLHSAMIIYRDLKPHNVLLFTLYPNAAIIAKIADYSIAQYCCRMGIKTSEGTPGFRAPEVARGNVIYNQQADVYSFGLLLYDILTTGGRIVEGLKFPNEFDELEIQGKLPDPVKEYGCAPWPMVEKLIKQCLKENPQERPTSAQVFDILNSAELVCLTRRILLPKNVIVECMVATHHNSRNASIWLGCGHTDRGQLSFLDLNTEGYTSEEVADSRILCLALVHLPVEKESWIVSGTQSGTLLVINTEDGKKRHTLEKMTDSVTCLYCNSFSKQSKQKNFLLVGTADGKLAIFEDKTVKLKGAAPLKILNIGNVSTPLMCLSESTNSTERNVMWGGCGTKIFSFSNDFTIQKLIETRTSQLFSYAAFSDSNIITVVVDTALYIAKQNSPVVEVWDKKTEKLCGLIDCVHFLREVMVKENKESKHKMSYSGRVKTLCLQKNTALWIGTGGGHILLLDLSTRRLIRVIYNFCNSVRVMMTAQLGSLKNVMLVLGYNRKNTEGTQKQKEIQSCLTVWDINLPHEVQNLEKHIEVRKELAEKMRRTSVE
Source text: (§1) Exemplary Assay for Testing LRRK2 Degradation Driven by Exemplary Hetero-Bifunctional Compounds Designed to Target LRRK2
(§2) The assay measures the degradation of wildtype and G2019S LRRK2 tagged with a HiBit tag on the C-terminus of the protein that was expressed from a mammalian expression vector, driven by the ubiquitin promoter in HEK293 cells. Each compound dose-response was repeated on two separate days, on three separate plates each day.
(§3) Plasmid Preparation. Transfection mixes were assembled as follows and incubated for 30 minutes at room temperature. In a 15 mL tube, 5.25 mL Opti-MEM (no additions) was mixed with 17 μL Firefly Luciferase plasmid at 1 μg/μL and 158 μL WT plasmid DNA at 1 μg/μL (175 μg total DNA) were mixed by flicking. In a new 15 mL tube, 5.25 mL OptiMEM was mixed with 17 μL Firefly Luciferase plasmid at 1 μg/μL and 158 μL G2019S plasmid DNA at 1 μg/μL (175 μg total DNA) were mixed by flicking. X-tremeGene HP was mixed thoroughly using a vortex. Next, 175 μL was added to each tube and flicked to mix. Both tubes were left to incubate for 30 minutes at room temperature.
(§4) While the transfection mixes were incubating, HEK293 cells (acquired from ATCC; ATCC CRL-1573) were harvested with trypsin. Once cells are detached, the cells were resuspended in 12 mL OptiMEM+5% FBS and transferred to a 50 mL tube. The cells were mixed well and counted. Using OptiMEM+5% FBS, the cells were diluted in two 250 mL conical tubes at 0.71×10^6 cells/mL in 70 mL. One tube was labeled “WT” and the other “G2019S”. The WT and G2019S transfection mixes were added dropwise to the corresponding 250 mL tubes. The tubes were mixed first by pipetting then by swirling. The tubes were incubated at room temperature for at least 5 minutes.
(§5) Each tube was swirled before dispensing and after every three plates. Seventy microliters of cells were dispensed with WT or G2019S DNA to seven plates each. Three plates of each were tested with compound plate one (preparation described below) and three plates of each were tested with compound plate two (preparation described below). The first plate from each set served as a “prime” plate and was not used to test compounds. Each plate was incubated in the hood for 10 minutes before placing in the 37° C. incubator for 24 hours.
(§6) Preparation of Compound and Assay Plates. Two compound plates were made using 96 well polypropylene plates. Compounds were made up at 10 mM and were diluted to 1 mM in 30 μL. Each dose response curve included a well of DMSO, as a negative control and for normalization, and a well of 0.5 μM of Compound 4 as a positive control. In addition to seven test compounds, each plate also included a dose response of Compound 4. The compound plates were spun down along at 1200 rpm for 2 minutes.
(§7) The two compound plates were then mixed and 2 μL was diluted in intermediate plates having 248 μL of Opti-Mem in each well. Next, 10 μL diluted compounds from the intermediate plates were added to each test plate (three WT and three G2019S plates per compound plate for a total of 12 assay plates). The plates were incubated for 24 hours at 37° C.
(§8) All assay plates and all Nano-Glo Dual-Luciferase Reporter Assay System components (except for the DLR substrate) were equilibrated to room temperature. Next, the luciferase buffer was mixed with the lyophilized amber bottle until fully dissolved, and 75 μL of the luciferase mixture was added to each well of each assay plate. The assay plates were incubated for 10 minutes at room temperature with shaking for at least 5 minutes, and then read on a plate reader.
(§9) Developing Plates and Analyzing Data. One milliliter of DLR substrate and 1 mL LgBiT Protein were added to the Stop and Glo buffer, and 75 μL of the mixture was added to each well of each plate. Optically clear seals were added to each plate and each plate was incubated for 20 minutes with shaking for at least 10 minutes, and then read on a plate reader. […]

wildtype LRRK2 = molecular target: T2, wildtype LRRK2 (Homo sapiens, UniProt Q5S007); experiment: LRRK2 degradation assay, HiBit-tagged wildtype LRRK2 expressed from plasmid in HEK293 cells (Nano-Glo Dual-Luciferase); type: cell-based; details: 24 hours; for Dmax: read-out: **WT Dmax (%); for DC50: read-out: *WT DC50
T2 construct: expressed in transfected cells; host or cells: HEK293 (ATCC CRL-1573), transient transfection, mammalian expression vector with ubiquitin promoter
T2 sequence (Q5S007 whole entry): as the sequence (Q5S007 whole entry G2019S) above, with S2019G counted along it
Source text: as §1, §2, §3, §4, §5, §6, §7, §8, §9

[1] = HiBit-tagged G2019S LRRK2 in HEK293 cells
[2] = HiBit-tagged wildtype LRRK2 in HEK293 cells
[3] = HiBit-tagged G2019S LRRK2, HEK293 cells
[4] = HiBit-tagged wildtype LRRK2, HEK293 cells

| DC50 (G2019S LRRK2; [1]) [nM] | Dmax (G2019S LRRK2; [1]) [%] | Dmax (wildtype LRRK2; [2]) [%] | DC50 (wildtype LRRK2; [2]) [nM] | DC50 (G2019S LRRK2; [3]) [nM] | DC50 (wildtype LRRK2; [4]) [nM] | Dmax (G2019S LRRK2; [3]) [%] | Dmax (wildtype LRRK2; [4]) [%] | SMILES |
| --- | --- | --- | --- | --- | --- | --- | --- | --- |
| 10 to 50 | 50 to 70 | 50 to 70 | 10 to 50 |  |  |  |  | CC1(Oc2ccc3[nH]nc(-c4ccnc(N5CCOC6(CN(CC7CCN(CC8CCN(c9cccc%10c9C(=O)N(C9CCC(=O)NC9=O)C%10=O)CC8)CC7)C6)C5)c4)c3c2)CC1 (stereo not drawn) [Compound 144, 2-(2,6-dioxo-3-piperidyl)-4-[4-[[4-[[8-[4-[5-(1-methylcyclopropoxy)-1H-indazol-3-yl]-2-pyridyl]-5-oxa-2,8-diazaspiro[3.5]nonan-2-yl]methyl]-1-piperidyl]methyl]-1-piperidyl]isoindoline-1,3-dione] |
| < 10 | < 50 | < 50 | < 10 |  |  |  |  | C[C@H]1CN(c2cc(-c3n[nH]c4ccc(OC5(C)CC5)cc34)ncn2)CCN1CC1CCN(CC2(F)CCN(c3ccc4c(c3)C(=O)N(C3CCC(=O)NC3=O)C4=O)CC2)CC1 (stereo partly drawn) [Compound 70, 2-(2,6-dioxo-3-piperidyl)-5-[4-fluoro-4-[[4-[[(2S)-2-methyl-4-[6-[5-(1-methylcyclopropoxy)-1H-indazol-3-yl]pyrimidin-4-yl]piperazin-1-yl]methyl]-1-piperidyl]methyl]-1-piperidyl]isoindoline-1,3-dione] |
| < 10 | 50 to 70 | 50 to 70 | < 10 |  |  |  |  | CC1(Oc2ccc3[nH]nc(-c4cc(N5CCC(CN6CCN(CC7CN(c8ccc9c(c8)C(=O)N(C8CCC(=O)NC8=O)C9=O)C7)CC6)CC5)ncn4)c3c2)CC1 (stereo not drawn) [Compound 133, 2-(2,6-dioxo-3-piperidyl)-5-[3-[[4-[[1-[6-[5-(1-methylcyclopropoxy)-1H-indazol-3-yl]pyrimidin-4-yl]-4-piperidyl]methyl]piperazin-1-yl]methyl]azetidin-1-yl]isoindoline-1,3-dione] |
| < 10 | < 50 | < 50 | < 10 |  |  |  |  | CC1(Oc2ccc3n[nH]c(-c4ccnc(N5CCN(C(=O)C6CCN(CC7CCN(c8ccc9c(c8)C(=O)N(C8CCC(=O)NC8=O)C9=O)CC7)CC6)CC5)c4)c3c2)CC1 (stereo not drawn) [Compound 85, 2-(2,6-dioxo-3-piperidyl)-5-[4-[[4-[4-[4-[5-(1-methylcyclopropoxy)-2H-indazol-3-yl]-2-pyridyl]piperazine-1-carbonyl]-1-piperidyl]methyl]-1-piperidyl]isoindoline-1,3-dione] |
| ≥ 100 |  |  | ≥ 100 |  |  |  |  | CC1(Oc2ccc3[nH]nc(-c4cc(N5CCC(CN6CCN(CC7CCN(c8ccc9c(c8)C(=O)N(C8CCC(=O)NC8=O)C9=O)CC7)CC6)CC5)ccn4)c3c2)CC1 (stereo not drawn) [Compound 98, 2-(2,6-dioxo-3-piperidyl)-5-[4-[[4-[[1-[2-[5-(1-methylcyclopropoxy)-1H-indazol-3-yl]-4-pyridyl]-4-piperidyl]methyl]piperazin-1-yl]methyl]-1-piperidyl]isoindoline-1,3-dione] |
| < 10 | 50 to 70 | 50 to 70 | < 10 |  |  |  |  | CC1(Oc2ccc3[nH]nc(-c4ccnc(N5CCOC6(CN(CC7CCN(CC8CCN(c9ccc%10c(c9)C(=O)N(C9CCC(=O)NC9=O)C%10=O)CC8)CC7)C6)C5)c4)c3c2)CC1 (stereo not drawn) [Compound 151, 2-(2,6-dioxo-3-piperidyl)-5-[4-[[4-[[8-[4-[5-(1-methylcyclopropoxy)-1H-indazol-3-yl]-2-pyridyl]-5-oxa-2,8-diazaspiro[3.5]nonan-2-yl]methyl]-1-piperidyl]methyl]-1-piperidyl]isoindoline-1,3-dione] |
|  |  |  |  | ≥ 100 | ≥ 100 |  |  | CC1(Oc2ccc3[nH]nc(-c4ccnc(N5CCC(Cc6ccc(CC7CCN(c8ccc9c(c8)C(=O)N(C8CCC(=O)NC8=O)C9=O)CC7)cc6)CC5)c4)c3c2)CC1 (stereo not drawn) [Compound 173, 2-(2,6-dioxo-3-piperidyl)-5-[4-[[4-[[1-[4-[5-(1-methylcyclopropoxy)-1H-indazol-3-yl]-2-pyridyl]-4-piperidyl]methyl]phenyl]methyl]-1-piperidyl]isoindoline-1,3-dione] |
| < 10 | < 50 | 50 to 70 | < 10 |  |  |  |  | CC1(Oc2ccc3[nH]nc(-c4cc(N5CCN(C[C@H]6CCN(CC7CCN(c8ccc9c(c8)C(=O)N(C8CCC(=O)NC8=O)C9=O)CC7)C(=O)C6)CC5)ncn4)c3c2)CC1 (single isomer, unassigned) [Compound 104] |
|  |  |  |  | < 10 | < 10 | ≥ 70 | 50 to 70 | CC1(Oc2ccc3[nH]nc(-c4cc(N5CC(CC6CCN(CC7CCN(c8ccc9c(c8)C(=O)N(C8CCC(=O)NC8=O)C9=O)CC7)CC6)C5)ncn4)c3c2)CC1 (stereo not drawn) [Compound 164, 2-(2,6-dioxo-3-piperidyl)-5-[4-[[4-[[1-[6-[5-(1-methylcyclopropoxy)-1H-indazol-3-yl]pyrimidin-4-yl]azetidin-3-yl]methyl]-1-piperidyl]methyl]-1-piperidyl]isoindoline-1,3-dione] |
| 10 to 50 | 50 to 70 | < 50 | 10 to 50 |  |  |  |  | CC1(Oc2ccc3[nH]nc(-c4cc(N5CCC(C(=O)N6CCC(CC7CCN(c8ccc9c(c8)C(=O)N(C8CCC(=O)NC8=O)C9=O)CC7)CC6)CC5)ncn4)c3c2)CC1 (stereo not drawn) [Compound 88, 2-(2,6-dioxo-3-piperidyl)-5-[4-[[1-[1-[6-[5-(1-methylcyclopropoxy)-1H-indazol-3-yl]pyrimidin-4-yl]piperidine-4-carbonyl]-4-piperidyl]methyl]-1-piperidyl]isoindoline-1,3-dione] |
| < 10 | 50 to 70 | 50 to 70 | < 10 |  |  |  |  | CC1(Oc2ccc3[nH]nc(-c4ccnc(N5CCN(CC6CCN(C(=O)C7CCN(c8ccc9c(c8)C(=O)N(C8CCC(=O)NC8=O)C9=O)CC7)CC6)CC5)c4)c3c2)CC1 (stereo not drawn) [Compound 91, 2-(2,6-dioxopiperidin-3-yl)-5-(4-{4-[(4-{4-[5-(1-methylcyclopropoxy)-1H-indazol-3-yl]pyridin-2-yl}piperazin-1-yl)methyl]piperidine-1-carbonyl}piperidin-1-yl)-2,3-dihydro-1H-isoindole-1,3-dione] |
| < 10 | ≥ 70 | ≥ 70 | < 10 |  |  |  |  | C[C@H]1CN(c2cc(-c3n[nH]c4ccc(OC5(C)CC5)cc34)ncn2)CCN1CCN1CCN(C(=O)C2CCN(c3ccc4c(c3)C(=O)N(C3CCC(=O)NC3=O)C4=O)CC2)CC1 (stereo partly drawn) [Compound 56, 2-(2,6-dioxo-3-piperidyl)-5-[4-[4-[2-[(2S)-2-methyl-4-[6-[5-(1-methylcyclopropoxy)-2H-indazol-3-yl]pyrimidin-4-yl]piperazin-1-yl]ethyl]piperazine-1-carbonyl]-1-piperidyl]isoindoline-1,3-dione] |

| SMILES | DC50 (G2019S LRRK2; [1]) [nM] | Dmax (G2019S LRRK2; [1]) [%] | Dmax (wildtype LRRK2; [2]) [%] | DC50 (wildtype LRRK2; [2]) [nM] | DC50 (G2019S LRRK2; [3]) [nM] | DC50 (wildtype LRRK2; [4]) [nM] | Dmax (G2019S LRRK2; [3]) [%] | Dmax (wildtype LRRK2; [4]) [%] |
| --- | --- | --- | --- | --- | --- | --- | --- | --- |
| CC1(Oc2ccc3[nH]nc(-c4cc(N5CCC(O[C@H]6C[C@H](OC7CCN(c8ccc9c(c8)C(=O)N(C8CCC(=O)NC8=O)C9=O)CC7)C6)CC5)ncn4)c3c2)CC1 (stereo partly drawn) [Compound 126, 2-(2,6-dioxo-3-piperidyl)-5-[4-[3-[[1-[6-[5-(1-methylcyclopropoxy)-1H-indazol-3-yl]pyrimidin-4-yl]-4-piperidyl]oxy]cyclobutoxy]-1-piperidyl]isoindoline-1,3-dione] | 10 to 50 | < 50 | < 50 | 10 to 50 |  |  |  |  |
